Legend:
production of PGF2α = assay: Inhibition of PGF2α production in IL-1β-stimulated A549 cells (EIA); type: cell-based; details: Homo sapiens, IL-1β 1 ng/ml, 18 hours; for inhibition at 10 µM: compound 10 μM, na = not active at the experimental concentration; for IC50: negative logarithm of IC50, read-out: pIC50 PGF2α (converted)
Source text: (§1) This test allows evaluation of the inhibitory capability on the production of the PGE2 prostaglandins and the selectivity relative to the production of the PGF2α prostaglandins.
(§2) The cell line A549, human pulmonary adenocarcinoma, was used, which is particularly sensitive to stimulation with pro-inflammatory cyokines, for instance IL-1β, and, in response to this stimulation, is particularly active in the production and release of two prostanoids: PGE2 and PGF2α (Thoren S. Jakobsson P-J, 2000).
(§3) The cells were stimulated with IL-1β, (1 ng/ml) and simultaneously treated with the test compound for 18 hours in an appropriate culture medium (DMEM—Dulbecco's Modified Eagle's Medium) supplemented with 5% foetal calf serum and L-glutamine (4 mM final) in an incubator at 37° C. and at a CO2 concentration of 5%.
(§4) After the incubation, the amount of PGE2 and PGF2α produced and released into the supernatant were assayed using an EIA kit (produced and sold by Cayman Chemicals, Ann Arbor, Mich., USA).
(§5) The comparative compounds used were indomethacin (Sigma-Aldrich), a non-steroidal anti-inflammatory drug that inhibits in equal measure both PGE2 and PGF2α, and also the compounds of formula (I) in which R1=CH3CH2, R2=OH, R3=R4=R5=R6=X=Y=H (comparative compound A) and R1=CH3CH2, R2=SCH3, R3=R4=R5=R6=X=Y=H (comparative compound B). […]

production of PGE2 = assay: Inhibition of PGE2 production in IL-1β-stimulated A549 cells (EIA); type: cell-based; details: Homo sapiens, IL-1β 1 ng/ml, 18 hours; for inhibition at 10 µM: compound 10 μM, na = not active at the experimental concentration; for IC50: negative logarithm of IC50, read-out: pIC50 PGE2 (converted)
Source text: as §1, §2, §3, §4, §5

production of PGI2 = assay: Test on human primary endothelial cells (HUVEC): inhibition of PGI2 production; type: cell-based; details: for Inhibition (%) of PGI2: compound at LogM −5, relative to control
Procedure: This test allows evaluation of the capability of the compounds of the invention to inhibit the production of PGI2.
The absence of inhibitory activity on this prostanoid can ensure maintenance of the vasoprotective action of the PGI2 prostanoids and provide useful pharmacological information regarding the absence of adverse side effects on the endothelium.
The action of the test compounds is evaluated in HUVEC cells under basal conditions and conditions of stimulation (J. Immunol. 1989, Jun. 1; 142(11): 3993-9).
The results are given as a percentage of inhibition relative to the control enzymatic activity.
Indomethacin is used as reference compound.

| SMILES | inhibition at 10 µM (production of PGF2α) [%] | inhibition at 10 µM (production of PGE2) [%] | melting point [°C] | IC50 (production of PGF2α) [nM] | IC50 (production of PGE2) [nM] | Inhibition (%) of PGI2 (production of PGI2) [%] | IC50 (production of PGI2; Homo sapiens, PGI2, printed as a negative logarithmic figure, read-out: IC50 (comparison compound) (converted)) [nM] |
| --- | --- | --- | --- | --- | --- | --- | --- |
| Cn1c2ccccc2c2cc(NC(=O)c3ccccc3Cl)ccc21 [Compound 1, 2-chloro-N-(9-methyl-9H-carbazol-3-yl)benzamide] | 27 | 59 | 206 |  |  |  |  |
| CC(C)n1c2ccccc2c2cc(NC(=O)c3ccccc3Cl)ccc21 [Compound 2, 2-chloro-N-[9-(1-methylethyl)-9H-carbazol-3-yl]benzamide] | 66 | 90 | 195 | 10000 | 794 | 31 |  |
| O=C(Nc1ccc2c(c1)c1ccccc1n2Cc1ccccc1)c1ccccc1Cl [Compound 3, 2-chloro-N-[9-(phenylmethyl)-9H-carbazol-3-yl]benzamide] | 7 | 86 |  | > 100000 | 1260 |  |  |
| CCn1c2ccccc2c2cc(NC(=O)c3ccccc3C(F)(F)F)ccc21 [Compound 4, N-(9-ethyl-9H-carbazol-3-yl)-2-(trifluoromethyl)benzamide] | 0 | 67 | 206 to 207 | 100000 | 631 | 21 |  |
| CCn1c2ccccc2c2cc(NC(=O)c3c(C)cccc3C)ccc21 [Compound 5, N-(9-ethyl-9H-carbazol-3-yl)-2,6-dimethylbenzamide] | 60 | 93 | 192 to 193 |  |  |  |  |
| CCn1c2ccccc2c2cc(NC(=O)c3ccccc3O)ccc21 [Compound A, N-(9-ethyl-9H-carbazol-3-yl)-2-hydroxybenzamide, reference compound] | 84 | 88 |  |  |  |  |  |
| COc1ccc2c(c1)c(CC(=O)O)c(C)n2C(=O)c1ccc(Cl)cc1 [indomethacin, reference compound] | 100 | 100 |  | 2.51 | 5.01 |  | 10 |
